# Measurements from patent US11866457B2, “Clearing agent” (SAVID THERAPEUTICS INC., priority 2016, dated 2024).
# What was measured:
# Cupid [1] = target: T1, Cupid (Streptomyces avidinii, UniProt P22629, E125D/E140N/N47D/N73G/R108K/R127K/S51D/S69N/Y107S/Y46S); test: Affinity to Cupid, SPR kinetics analysis (Biacore T200, Single Cycle Kinetics, CEA-Cupid immobilized); assay type: binding
# T1 construct: fused on or other part: Anti-CEACAM5 scFv antibody ST03 fused to Cupid as the molecular probe (ST03-Cupid = anti-CEA-Cupid = 'CEA-Cupid'); 6xHis tag at the C-terminus
# Method: (§1) In order to examine the affinity of Zephyr1 and Zephyr2 to Cupid, kinetics analysis was carried out using SPR (Biacore T200). Specifically, using Amin Coupling Kit (GE Healthcare), CEA-Cupid serving as a ligand was immobilized on Sensor Chip CM5 (GE Healthcare), targeting 5000RU. Thereafter, using 5 two-fold serial dilutions (from 10 nM) of Zephyr1 or Zephyr2 serving as an analyte, kinetics analysis was carried out according to a Single Cycle Kinetics method. Thereafter, using Biacore T200 Evaluation Software, version 2.0 (GE Healthcare), the obtained data were fitted at a Bivalent Analyte mode, and kinetic parameters were calculated. As a result, Zephyr1: ka=3.792E+4, kd=4.42E−6 (FIG. 3A); and Zephyr2: ka=1.578E+7, kd=0.09339 (FIG. 3B).
# Cupid [2] = target: T2, Cupid (Streptomyces avidinii, UniProt P22629, Y46S/N47D/S51D/S69N/N73G/Y107S/R108K/E125D/R127K/E140N); test: as above; assay type: binding; details: for ka / kd: Bivalent Analyte fit
# T2 construct: fused on or other part: Anti-CEACAM5 scFv antibody ST03 fused to Cupid as the molecular probe (ST03-Cupid = anti-CEA-Cupid = 'CEA-Cupid'); 6xHis tag at the C-terminus
# Method: as §1
# [^125I]ST03-Cupid = In vivo test of clearing agent: change in blood radioactivity concentration of [^125I]ST03-Cupid in mice; details: mouse blood
# Method: In order to examine the efficacy of Compound 14 (Zephyr1), ^125I-labeled ST03-Cupid ([^125I]ST03-Cupid) was administered to male mice via single intravenous administration, and the blood was then collected over time, so that a change in the blood radioactivity concentration caused by administration of Compound 14 was measured. Specifically, four experimental groups were prepared. In a first group, Compound 14 was administered to the mice via single intravenous administration, 6 hours after administration of [^125I]ST03-Cupid. A second group was defined as a control group for the first group, and a normal saline was administered to the mice, instead of Compound 14. In a third group, Compound 14 was administered to the mice via single intravenous administration, 24 hours after administration of [^125I]ST03-Cupid. A fourth group was defined as a control group for the third group, and a normal saline was administered to the mice, instead of Compound 14.
# Specifically, with regard to administration of [^125I]ST03-Cupid to the mice, 100 μL of [^125I]ST03-Cupid was administered in a concentration of 50 kBq/100 μL to the mice via single intravenous administration ([…]/50 kBq/100 μL injection). Thereafter, 6 hours or 24 hours after administration of [^125I]ST03-Cupid, Compound 14 was administered to the mice in an amount of 2 times the number of moles of the administered ST03-Cupid ([…]/100 μL injection), or 100 μL of a normal saline was administered to the mice. It is to be noted that the experiments were carried out using the mice groups (n=4 to 6 in each group).
# The blood was collected from the orbital vein of the mice over time. When Compound 14 was administered to the mice 6 hours after administration of [^125I]ST03-Cupid, blood collection was carried out with the following time intervals: first blood collection—10 minutes after administration of [^125I]ST03-Cupid, second blood collection—6 hours after administration of [^125]ST03-Cupid, third blood collection—10 minutes after administration of Saline or Compound 14, fourth blood collection—1 hour after administration of Saline or Compound 14, fifth blood collection—3 hours after administration of Saline or Compound 14, sixth blood collection—18 hours after administration of Saline or Compound 14, and seventh blood collection—24 hours after administration of Saline or Compound 14. Likewise, when Compound 14 was administered to the mice 24 hours after administration of [^125I]ST03-Cupid, blood collection was carried out with the following time intervals: first blood collection—10 minutes after administration of [^125]ST03-Cupid, second blood collection—24 hours after administration of [^125I]ST03-Cupid, third blood collection—10 minutes after administration of Saline or Compound 14, fourth blood collection—1 hour after administration of Saline or Compound 14, fifth blood collection—3 hours after administration of Saline or Compound 14, sixth blood collection—6 hours after administration of Saline or Compound 14, and seventh blood collection—24 hours after administration of Saline or Compound 14. The collected blood (40 to 50 μL) was measured using a gamma counter. The counting rate (dmp) measured with the gamma counter was divided by the amount of blood collected (g) to calculate a counting rate (dpm/g of blood) per unit weight, and the results were shown in a graph. Likewise, the counting rate (dmp) measured with the gamma counter was divided by the counting rate of [^125I]ST03-Cupid before administration, so as to calculate the remaining percentage (% ID/g of blood) in the dose after the administration. The results were shown in a graph. The measurement results are shown in Tables 1 and 2 and FIGS. 1 and 2.
# CEA-Cupid = test: Clearance of Cupid by Zephyr2 in vivo, xenograft mouse models, blood radioactivity of Psyche-B-DOTA(^111In); details: Zephyr2 20 hours after CEA-Cupid; Psyche-B-DOTA(111In) two hours later; blood collected 4 hours after labeling substance
# Method: A 100 mM acetate buffer was added to ^111InCl3 solution 37 MBq (approx. […]) in the same volume as the ^111InCl3 solution, and the pH of the mixed solution was then adjusted to pH 4 to 5. Psyche-B-DOTA was added to the mixed solution at a molar ratio of 1000 times (10 nmol), such that the concentration of DMSO became 0.2% or more. The thus obtained mixture was heated at 80° C. for 15 minutes or more. Thereafter, the reaction mixture was analyzed according to HPLC, and the radiochemical purity was confirmed. The mixture was diluted with a 10 mM acetate buffer to a concentration of 1 nmol/mL, and the obtained solution was used as an administration solution.
# Whether or not Cupid existing in the blood of a living body is cleared by Zephyr2 was examined by performing an experiment using xenograft mouse models. The experiment was carried out using three mice from a Zephyr2 administration group and three mice from a non-administration group (control group). Specifically, […] CEA-Cupid was administered to the xenograft mouse models, and 20 hours after the administration of CEA-Cupid, 100 μmol Zephyr2 was administered (the control group was untreated). […] Subsequently, 4 hours after the administration of the labeling substance, the blood was collected, and the amount of radioactivity therein was then measured using a gamma counter. […]
# [3] = CA given 6 hr after [125I]ST03-Cupid, time 0.17 hr (before CA)
# [4] = CA given 6 hr after [125I]ST03-Cupid, time 5.92 hr (before CA)
# [5] = CA given 6 hr after [125I]ST03-Cupid, time 6.17 hr
# [6] = CA given 6 hr after [125I]ST03-Cupid, time 7 hr
# [7] = CA given 6 hr after [125I]ST03-Cupid, time 9 hr
# [8] = CA given 6 hr after [125I]ST03-Cupid, time 24 hr
# [9] = CA given 6 hr after [125I]ST03-Cupid, time 30 hr
# [10] = CA given 24 hr after [125I]ST03-Cupid, time 0.17 hr (before CA)
# [11] = CA given 24 hr after [125I]ST03-Cupid, time 23.92 hr (before CA)
# [12] = CA given 24 hr after [125I]ST03-Cupid, time 24.17 hr
# [13] = CA given 24 hr after [125I]ST03-Cupid, time 25 hr
# [14] = CA given 24 hr after [125I]ST03-Cupid, time 27 hr
# [15] = CA given 24 hr after [125I]ST03-Cupid, time 30 hr
# [16] = CA given 24 hr after [125I]ST03-Cupid, time 48 hr
# T2 sequence (P22629 whole entry Y46S/N47D/S51D/S69N/N73G/Y107S/R108K/E125D/R127K/E140N, looked up, the tested form may be a part): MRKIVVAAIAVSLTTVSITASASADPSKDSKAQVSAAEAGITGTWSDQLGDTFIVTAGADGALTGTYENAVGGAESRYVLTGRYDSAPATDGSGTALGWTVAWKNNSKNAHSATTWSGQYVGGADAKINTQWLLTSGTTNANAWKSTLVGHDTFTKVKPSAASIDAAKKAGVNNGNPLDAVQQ
# T1 sequence (P22629 whole entry E125D/E140N/N47D/N73G/R108K/R127K/S51D/S69N/Y107S/Y46S, looked up, the tested form may be a part): as the sequence (P22629 whole entry Y46S/N47D/S51D/S69N/N73G/Y107S/R108K/E125D/R127K/E140N, looked up, the tested form may be a part) above
smiles,measurement,setting,value
CC(=O)NC1C(SCCC(=O)NCCOCCOCCNC(=O)CCC(CCC(=O)NCCOCCOCCNC(=O)CCSC2OC(CO)C(O)C(O)C2NC(C)=O)(CCC(=O)NCCOCCOCCNC(=O)CCSC2OC(CO)C(O)C(O)C2NC(C)=O)NC(=O)OCCOCCOCCn2cc(COCCNC(=O)c3cc(NC(=O)CCCCCNC(=O)CCCC[C@@H]4SC[C@@H]5NC(=N)N[C@@H]54)cc(NC(=O)CCCCCNC(=O)CCCC[C@@H]4SC[C@@H]5NC(=N)N[C@@H]54)c3)nn2)OC(CO)C(O)C1O (stereo partly drawn) [Compound 14],Kd,Cupid [1],0.117 nM
same,ka,Cupid [2]; SPR,3.792E+4
same,kd,Cupid [2]; SPR,4.42E−6
same,% Injected Dose/g of blood,[^125I]ST03-Cupid; [3],31.7 ± 3.6 % Injected Dose/g of blood
same,Radioactivity concentration,[^125I]ST03-Cupid; [3],599504 ± 68046 dpm/g
same,% Injected Dose/g of blood,[^125I]ST03-Cupid; [4],16.6 ± 2.2 % Injected Dose/g of blood
same,Radioactivity concentration,[^125I]ST03-Cupid; [4],312854 ± 42382 dpm/g
same,% Injected Dose/g of blood,[^125I]ST03-Cupid; [5],6.2 ± 1.8 % Injected Dose/g of blood
same,Radioactivity concentration,[^125I]ST03-Cupid; [5],117840 ± 34798 dpm/g
same,% Injected Dose/g of blood,[^125I]ST03-Cupid; [6],4.8 ± 1.6 % Injected Dose/g of blood
same,Radioactivity concentration,[^125I]ST03-Cupid; [6],90787 ± 29628 dpm/g
same,% Injected Dose/g of blood,[^125I]ST03-Cupid; [7],4.4 ± 1.6 % Injected Dose/g of blood
same,Radioactivity concentration,[^125I]ST03-Cupid; [7],83236 ± 29606 dpm/g
same,% Injected Dose/g of blood,[^125I]ST03-Cupid; [8],2.4 ± 0.8 % Injected Dose/g of blood
same,Radioactivity concentration,[^125I]ST03-Cupid; [8],46178 ± 15340 dpm/g
same,% Injected Dose/g of blood,[^125I]ST03-Cupid; [9],2.0 ± 0.7 % Injected Dose/g of blood
same,Radioactivity concentration,[^125I]ST03-Cupid; [9],37023 ± 13443 dpm/g
same,% Injected Dose/g of blood,[^125I]ST03-Cupid; [10],33.8 ± 2.5 % Injected Dose/g of blood
same,Radioactivity concentration,[^125I]ST03-Cupid; [10],638296 ± 48098 dpm/g
same,% Injected Dose/g of blood,[^125I]ST03-Cupid; [11],6.2 ± 0.9 % Injected Dose/g of blood
same,Radioactivity concentration,[^125I]ST03-Cupid; [11],116201 ± 17325 dpm/g
same,% Injected Dose/g of blood,[^125I]ST03-Cupid; [12],0.4 ± 0.1 % Injected Dose/g of blood
same,Radioactivity concentration,[^125I]ST03-Cupid; [12],8368 ± 1872 dpm/g
same,% Injected Dose/g of blood,[^125I]ST03-Cupid; [13],0.4 ± 0.1 % Injected Dose/g of blood
same,Radioactivity concentration,[^125I]ST03-Cupid; [13],7381 ± 1798 dpm/g
same,% Injected Dose/g of blood,[^125I]ST03-Cupid; [14],0.6 ± 0.1 % Injected Dose/g of blood
same,Radioactivity concentration,[^125I]ST03-Cupid; [14],10748 ± 2533 dpm/g
same,% Injected Dose/g of blood,[^125I]ST03-Cupid; [15],0.6 ± 0.2 % Injected Dose/g of blood
same,Radioactivity concentration,[^125I]ST03-Cupid; [15],12088 ± 3191 dpm/g
same,% Injected Dose/g of blood,[^125I]ST03-Cupid; [16],0.5 ± 0.1 % Injected Dose/g of blood
same,Radioactivity concentration,[^125I]ST03-Cupid; [16],9001 ± 1942 dpm/g
COC(=O)C(CCCCNC(=O)c1cc(NC(=O)NCCOCCOCCNC(=O)CCc2cn(CCOCCOCCOC(=O)NC(CCC(=O)NCCOCCOCCNC(=O)CCSC3OC(CO)C(O)C(O)C3NC(C)=O)(CCC(=O)NCCOCCOCCNC(=O)CCSC3OC(CO)C(O)C(O)C3NC(C)=O)CCC(=O)NCCOCCOCCNC(=O)CCSC3OC(CO)C(O)C(O)C3NC(C)=O)nn2)cc(C(=O)NCCCCC(NC(=O)CCCCC2SCC3NC(=N)NC32)C(=O)OC)c1)NC(=O)CCCCC1SCC2NC(=N)NC21 (stereo not drawn) [Compound 25],ka,Cupid [2]; SPR,1.578E+7
same,kd,Cupid [2]; SPR,0.09339
same,Kd,"Cupid [2]; SPR, printed as KD=ka/kd",5.88 nM
same,affinity to Cupid reduced in comparison to that of Zephyr1,Cupid [2]; ratio of KD values,approximately one fiftieth
same,amount of radioactivity in blood,CEA-Cupid,4.51 % ID/g
